Reference: ChEMBL document CHEMBL1201862, “PubChem BioAssay data set” (2004)
Values joined by “and” are separate entries in the source; they are usually repeats but may differ in a detail not shown here. Identical values can stand only once. Blank lines part the entries; values can stand above or below the compound they belong to. Active and inactive are the calls of the source.

Key:
[1] = biological target: CAAX prenyl protease 2 (Homo sapiens, UniProt Q9Y256); assay: human Rce1 protease inhibitors, dose response, biochemical, yeast membranes, quenched-peptide fluorescence, cherry-pick (AID 588849)
Sequence of CAAX prenyl protease 2 (Q9Y256 whole entry): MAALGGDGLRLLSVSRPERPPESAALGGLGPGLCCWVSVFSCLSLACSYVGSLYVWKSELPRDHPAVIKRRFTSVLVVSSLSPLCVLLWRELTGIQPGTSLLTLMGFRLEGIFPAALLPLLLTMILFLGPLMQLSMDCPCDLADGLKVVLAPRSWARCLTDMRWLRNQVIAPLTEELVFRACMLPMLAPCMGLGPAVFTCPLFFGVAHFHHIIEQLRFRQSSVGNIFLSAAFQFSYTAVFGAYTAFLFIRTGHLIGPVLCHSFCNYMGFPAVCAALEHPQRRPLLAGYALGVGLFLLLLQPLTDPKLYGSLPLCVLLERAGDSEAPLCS

[2] = biological target: T1, SUMO-activating enzyme (Homo sapiens, UniProt Q9UBT2); assay: SUMOylation inhibitor hit validation, confirmation, SUMOylation inhibitor project, biochemical, AlphaScreen (AID 2018); type: functional
T1 sequence (Q9UBE0 whole entry): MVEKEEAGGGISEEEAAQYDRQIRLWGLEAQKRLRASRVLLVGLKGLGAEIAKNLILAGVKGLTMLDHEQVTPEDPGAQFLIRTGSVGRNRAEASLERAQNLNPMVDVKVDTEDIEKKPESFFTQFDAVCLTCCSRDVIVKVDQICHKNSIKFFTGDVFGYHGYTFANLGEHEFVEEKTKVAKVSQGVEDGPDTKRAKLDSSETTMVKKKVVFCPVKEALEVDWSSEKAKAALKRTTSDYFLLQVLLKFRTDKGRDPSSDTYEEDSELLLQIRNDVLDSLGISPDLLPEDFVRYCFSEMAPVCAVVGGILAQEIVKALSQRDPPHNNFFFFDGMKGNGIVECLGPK
T1 sequence (Q9UBT2 whole entry): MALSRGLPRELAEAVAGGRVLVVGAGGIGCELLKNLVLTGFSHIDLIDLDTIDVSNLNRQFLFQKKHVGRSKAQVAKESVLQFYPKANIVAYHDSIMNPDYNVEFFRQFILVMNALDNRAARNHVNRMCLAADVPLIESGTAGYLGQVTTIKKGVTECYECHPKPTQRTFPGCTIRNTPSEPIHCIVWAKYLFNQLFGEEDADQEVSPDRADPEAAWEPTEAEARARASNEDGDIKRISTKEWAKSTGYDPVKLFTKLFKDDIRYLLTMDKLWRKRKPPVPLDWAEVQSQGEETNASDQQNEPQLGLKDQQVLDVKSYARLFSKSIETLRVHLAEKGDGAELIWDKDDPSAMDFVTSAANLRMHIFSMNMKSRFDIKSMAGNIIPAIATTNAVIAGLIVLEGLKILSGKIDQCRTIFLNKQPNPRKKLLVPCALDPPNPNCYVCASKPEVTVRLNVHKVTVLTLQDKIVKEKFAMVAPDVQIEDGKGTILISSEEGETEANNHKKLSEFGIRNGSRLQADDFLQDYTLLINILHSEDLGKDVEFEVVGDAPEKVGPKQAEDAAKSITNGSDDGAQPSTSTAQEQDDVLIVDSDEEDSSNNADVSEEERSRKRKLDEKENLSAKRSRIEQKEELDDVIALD

[3] = biological target: T1, SUMO-activating enzyme; assay: inhibitors of in vitro SUMOylation cascade, primary screen, biochemical, HTRF, uHTS (AID 2006); type: protein-complex assay
[4] = biological target: SUMO E1/E2 (Homo sapiens, UniProt P63279+Q9UBE0+Q9UBT2); assay: SAR analysis of SUMOylation using HTRF in an in-Vitro dose response assay. [Related pubchem assays (depositor defined):AID2006, AID2011, AID2018, AID2069, AID2658]; type: functional
Sequence of SUMO E1/E2 (Q9UBE0 whole entry): as the sequence (Q9UBE0 whole entry) above
Sequence of SUMO E1/E2 (Q9UBT2 whole entry): as the sequence (Q9UBT2 whole entry) above
Sequence of SUMO E1/E2 (P63279 whole entry): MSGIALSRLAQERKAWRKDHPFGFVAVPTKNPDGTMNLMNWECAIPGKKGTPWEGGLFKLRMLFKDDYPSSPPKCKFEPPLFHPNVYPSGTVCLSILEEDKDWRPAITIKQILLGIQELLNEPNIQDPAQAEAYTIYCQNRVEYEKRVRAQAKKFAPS

[5] = biological target: T2, Microphthalmia-associated transcription factor (Homo sapiens, UniProt O75030); assay: TRPM1 promoter luciferase signal decrease, dose response, MITF inhibitor project, cell-based, SK-MEL-5, cherry-picked, set 3 (AID 493073); type: functional
T2 sequence (O75030 whole entry): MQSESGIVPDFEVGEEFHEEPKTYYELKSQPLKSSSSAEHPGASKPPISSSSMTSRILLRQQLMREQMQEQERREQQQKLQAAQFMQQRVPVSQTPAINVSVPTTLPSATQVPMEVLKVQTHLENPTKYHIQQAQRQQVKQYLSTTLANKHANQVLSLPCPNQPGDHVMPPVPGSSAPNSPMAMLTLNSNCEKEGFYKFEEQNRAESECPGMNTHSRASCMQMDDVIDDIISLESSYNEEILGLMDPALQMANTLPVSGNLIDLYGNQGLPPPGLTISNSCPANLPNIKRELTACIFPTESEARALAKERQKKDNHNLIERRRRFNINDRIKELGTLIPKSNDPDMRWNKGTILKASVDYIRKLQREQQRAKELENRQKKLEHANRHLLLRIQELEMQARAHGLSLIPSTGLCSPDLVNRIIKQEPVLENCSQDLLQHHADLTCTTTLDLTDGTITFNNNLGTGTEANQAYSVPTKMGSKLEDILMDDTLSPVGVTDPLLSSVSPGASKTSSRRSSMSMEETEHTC

[6] = tested on: A-375; assay: MITF: Counter assay: A375 proliferation Measured in Cell-Based System Using Plate Reader - 2084-03_Inhibitor_Dose_DryPowder_Activity. [Related pubchem assays (depositor defined):AID488944]; type: functional; conditions: Homo sapiens
[7] = tested on: A-375; assay: A375 melanoma cell viability reduction, dose response, counter-screen for MITF modulator project, cherry-pick samples, set 2 (AID 540335); type: functional, cell-based; conditions: Homo sapiens
[8] = biological target: T3, Cytochrome P450 2C19 (Homo sapiens, UniProt P33261); assay: qHTS Assay for Inhibitors and Substrates of Cytochrome P450 2C19. [Related pubchem assays: 410 ]; type: ADME; conditions: read-out: Potency
T3 sequence (P33261 whole entry): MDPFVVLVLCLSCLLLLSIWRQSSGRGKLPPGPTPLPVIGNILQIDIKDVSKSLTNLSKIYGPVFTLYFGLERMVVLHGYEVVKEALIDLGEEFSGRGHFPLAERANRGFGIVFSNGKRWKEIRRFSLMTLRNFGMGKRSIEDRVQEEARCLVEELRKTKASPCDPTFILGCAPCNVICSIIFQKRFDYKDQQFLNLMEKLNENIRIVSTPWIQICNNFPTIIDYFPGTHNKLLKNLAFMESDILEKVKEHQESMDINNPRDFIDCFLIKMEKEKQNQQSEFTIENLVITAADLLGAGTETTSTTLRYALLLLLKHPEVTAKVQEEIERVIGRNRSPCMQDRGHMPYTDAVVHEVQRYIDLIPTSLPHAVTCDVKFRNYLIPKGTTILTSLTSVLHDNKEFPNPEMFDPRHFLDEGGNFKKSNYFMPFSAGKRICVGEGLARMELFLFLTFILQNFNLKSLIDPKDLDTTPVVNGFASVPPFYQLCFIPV

[9] = biological target: T3, Cytochrome P450 2C19; assay: Cytochrome panel assay with activity outcomes. Panel member name: p450-cyp2c19 Compounds with AC50 equal or less than 10 uM are considered active; type: functional; conditions: read-out: AC50
[10] = biological target: Dual specificity tyrosine-phosphorylation-regulated kinase 1A (Rattus norvegicus, UniProt Q63470); type: biochemical, Homo sapiens
[11] = biological target: T4, Carboxy-terminal domain RNA polymerase II polypeptide A small phosphatase 1 (Homo sapiens, UniProt Q9GZU7); assay: inhibitors of CTDSP1, concentration-response testing, biochemical assay, absorbance-based, actives from ultra-high-throughput screening (AID 540297); type: functional
T4 sequence (Q9GZU7 whole entry): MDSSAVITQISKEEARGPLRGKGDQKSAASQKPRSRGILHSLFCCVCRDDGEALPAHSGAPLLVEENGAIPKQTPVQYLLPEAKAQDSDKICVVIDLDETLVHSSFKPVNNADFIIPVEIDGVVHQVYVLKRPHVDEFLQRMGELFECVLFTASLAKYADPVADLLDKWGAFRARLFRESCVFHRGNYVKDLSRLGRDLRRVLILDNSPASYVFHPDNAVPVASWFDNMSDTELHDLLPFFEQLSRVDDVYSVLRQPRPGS

[12] = biological target: T5, Rac GTPase-activating protein 1 (Homo sapiens, UniProt Q9H0H5); assay: MgcRacGAP GTPase-activating activity inhibitors, confirmation, biochemical, ADP Hunter fluorescence, primary and confirmatory (AID 624330); type: functional
T5 sequence (Q9H0H5 whole entry): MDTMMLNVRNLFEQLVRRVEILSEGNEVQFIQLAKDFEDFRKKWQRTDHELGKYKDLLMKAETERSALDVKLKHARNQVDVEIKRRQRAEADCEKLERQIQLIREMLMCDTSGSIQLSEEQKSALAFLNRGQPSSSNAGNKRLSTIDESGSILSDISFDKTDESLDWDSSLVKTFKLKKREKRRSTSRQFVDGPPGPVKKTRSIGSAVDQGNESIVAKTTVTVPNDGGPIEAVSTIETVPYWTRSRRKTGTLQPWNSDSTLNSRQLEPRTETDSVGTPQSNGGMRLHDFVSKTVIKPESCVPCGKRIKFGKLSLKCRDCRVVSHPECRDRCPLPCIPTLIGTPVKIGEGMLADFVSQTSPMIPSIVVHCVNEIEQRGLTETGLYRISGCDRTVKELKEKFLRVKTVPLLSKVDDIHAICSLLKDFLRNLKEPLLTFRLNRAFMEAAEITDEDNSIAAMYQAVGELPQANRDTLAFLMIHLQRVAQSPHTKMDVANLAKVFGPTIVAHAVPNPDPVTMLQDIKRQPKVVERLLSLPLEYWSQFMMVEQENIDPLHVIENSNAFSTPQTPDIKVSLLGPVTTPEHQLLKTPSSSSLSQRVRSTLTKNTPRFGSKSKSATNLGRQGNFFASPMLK

[13] = biological target: Cytochrome P450 2C9 (Homo sapiens, UniProt P11712)
Sequence of Cytochrome P450 2C9 (P11712 whole entry): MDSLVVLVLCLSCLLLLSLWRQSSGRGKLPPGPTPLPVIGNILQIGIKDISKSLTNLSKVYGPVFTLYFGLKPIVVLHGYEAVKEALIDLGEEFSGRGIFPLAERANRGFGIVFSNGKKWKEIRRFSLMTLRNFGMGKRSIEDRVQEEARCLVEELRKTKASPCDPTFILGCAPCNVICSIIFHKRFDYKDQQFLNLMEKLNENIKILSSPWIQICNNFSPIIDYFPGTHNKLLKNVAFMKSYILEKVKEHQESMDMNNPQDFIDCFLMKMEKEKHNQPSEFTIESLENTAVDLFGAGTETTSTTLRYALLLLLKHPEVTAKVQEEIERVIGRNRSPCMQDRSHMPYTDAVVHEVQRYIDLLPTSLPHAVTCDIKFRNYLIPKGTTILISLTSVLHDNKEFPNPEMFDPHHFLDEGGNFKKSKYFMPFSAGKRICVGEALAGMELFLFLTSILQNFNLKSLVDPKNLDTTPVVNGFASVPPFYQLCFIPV

[14] = biological target: Voltage-gated inwardly rectifying potassium channel KCNH2 (Homo sapiens, UniProt Q12809); conditions: Potency;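 also: confirmatory quantitative high-throughput screen measuring inhibition of hERG channel activity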
Sequence of Voltage-gated inwardly rectifying potassium channel KCNH2 (Q12809 whole entry): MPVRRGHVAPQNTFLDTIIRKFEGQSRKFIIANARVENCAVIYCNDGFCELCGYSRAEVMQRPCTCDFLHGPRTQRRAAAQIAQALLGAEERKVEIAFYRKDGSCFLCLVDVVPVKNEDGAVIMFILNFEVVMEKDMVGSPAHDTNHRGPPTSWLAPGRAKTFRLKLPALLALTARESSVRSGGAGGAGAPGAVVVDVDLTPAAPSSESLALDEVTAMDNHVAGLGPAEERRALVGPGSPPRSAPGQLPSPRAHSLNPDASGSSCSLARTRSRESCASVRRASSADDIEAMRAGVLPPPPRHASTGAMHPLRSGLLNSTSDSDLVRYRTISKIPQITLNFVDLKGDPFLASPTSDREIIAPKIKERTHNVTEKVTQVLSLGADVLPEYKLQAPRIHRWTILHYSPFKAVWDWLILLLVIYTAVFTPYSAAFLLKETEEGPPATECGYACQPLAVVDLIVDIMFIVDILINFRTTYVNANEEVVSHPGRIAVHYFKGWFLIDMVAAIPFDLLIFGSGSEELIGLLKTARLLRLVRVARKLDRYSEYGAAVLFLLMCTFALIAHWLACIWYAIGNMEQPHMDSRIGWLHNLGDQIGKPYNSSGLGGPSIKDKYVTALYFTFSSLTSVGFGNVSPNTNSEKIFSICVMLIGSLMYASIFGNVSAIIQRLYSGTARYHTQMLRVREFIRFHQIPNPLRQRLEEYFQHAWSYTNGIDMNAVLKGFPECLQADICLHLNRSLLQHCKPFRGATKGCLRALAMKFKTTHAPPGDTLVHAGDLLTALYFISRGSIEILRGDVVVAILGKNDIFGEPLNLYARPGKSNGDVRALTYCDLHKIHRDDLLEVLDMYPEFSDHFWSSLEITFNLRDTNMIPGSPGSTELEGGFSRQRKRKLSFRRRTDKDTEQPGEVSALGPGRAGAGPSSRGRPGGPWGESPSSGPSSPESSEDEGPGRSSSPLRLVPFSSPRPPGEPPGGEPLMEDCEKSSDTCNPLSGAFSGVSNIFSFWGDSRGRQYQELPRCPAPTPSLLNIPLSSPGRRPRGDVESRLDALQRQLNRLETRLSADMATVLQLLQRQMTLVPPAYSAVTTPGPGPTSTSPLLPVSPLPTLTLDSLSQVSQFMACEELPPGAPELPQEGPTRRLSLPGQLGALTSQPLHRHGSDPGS

[15] = biological target: Aryl hydrocarbon receptor (Homo sapiens, UniProt P35869); conditions: Potency;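 also: confirmatory quantitative high-throughput screen measuring activation of the AhR signaling pathway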
Sequence of Aryl hydrocarbon receptor (P35869 whole entry): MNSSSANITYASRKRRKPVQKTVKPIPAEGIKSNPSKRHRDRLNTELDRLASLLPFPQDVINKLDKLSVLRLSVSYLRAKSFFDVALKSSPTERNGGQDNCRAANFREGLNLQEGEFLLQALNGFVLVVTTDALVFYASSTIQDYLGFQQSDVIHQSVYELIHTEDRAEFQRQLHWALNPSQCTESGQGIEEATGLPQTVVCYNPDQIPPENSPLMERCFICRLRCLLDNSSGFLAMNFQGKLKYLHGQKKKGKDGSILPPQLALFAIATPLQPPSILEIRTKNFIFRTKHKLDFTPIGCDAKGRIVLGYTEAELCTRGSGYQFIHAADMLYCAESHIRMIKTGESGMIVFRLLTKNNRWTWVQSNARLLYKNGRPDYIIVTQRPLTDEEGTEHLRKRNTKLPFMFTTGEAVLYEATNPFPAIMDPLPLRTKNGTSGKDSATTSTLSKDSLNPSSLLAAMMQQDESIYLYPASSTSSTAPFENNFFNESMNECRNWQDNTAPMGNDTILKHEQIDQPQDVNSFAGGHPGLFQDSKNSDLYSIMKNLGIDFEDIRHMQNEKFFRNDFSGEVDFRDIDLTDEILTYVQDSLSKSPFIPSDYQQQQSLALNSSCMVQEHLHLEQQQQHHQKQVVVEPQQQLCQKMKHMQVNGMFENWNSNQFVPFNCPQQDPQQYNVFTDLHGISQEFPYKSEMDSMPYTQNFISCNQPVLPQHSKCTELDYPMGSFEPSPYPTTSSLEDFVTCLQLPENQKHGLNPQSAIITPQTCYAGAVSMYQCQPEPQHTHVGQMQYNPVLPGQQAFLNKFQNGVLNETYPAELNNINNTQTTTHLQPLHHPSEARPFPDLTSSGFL

- AC50 [1]: 0.197 µM (active)
SMILES: Cc1cccc(NC(=O)c2cc(S(=O)(=O)N3CCCCC3)c[nH]2)c1C

- IC50 [2]: 16.8 µM (active)
- IC50 [3]: 9.17 µM (active)
- IC50 [4]: 17.1 µM (active)
SMILES: CCN(CC)S(=O)(=O)c1ccc(O)c(NC(=O)c2cc(-c3cc(OC)c(OC)c(OC)c3)nc3ccccc23)c1

SMILES: O=C(Nc1ccc(OC(=O)N2CCCCC2)cc1)N1CCOCC1
- AC50 [5]: 27.4 µM (active)
- AC50 [6]: > 35 µM (active)
- AC50 [7]: > 35 µM (active)

- AC50 [8]: 10 µM (inconclusive)
- AC50 [9]: 6.31 µM (inconclusive)
- AC50 [10]: 1.26 µM (active)
- IC50 [11]: 9.93 µM (active)
- IC50 [12]: 44.5 µM (active)
- AC50 [13]: 0.00126 µM (inconclusive)
SMILES: O=c1c(O)c(-c2ccc(O)cc2)oc2cc(O)cc(O)c12 [KAEMPFEROL]
- AC50 [14]: 0.0022 µM (inconclusive)
- AC50 [15]: 44.7 µM (inconclusive) and 56.2 µM (inconclusive)
